{"source": "patent US10385021B2", "about": "“Carbamate compound and use thereof” (SUMITOMO CHEMICAL COMPANY, LIMITED, priority 2015, dated 2019)", "test_system": "wheat rust fungus (Puccinia recondita)", "test": "Test Example 2: wheat rust, foliar spray before inoculation, lesion area", "type": "in vivo", "details": "200 ppm foliar spray, wheat (Shirogane), inoculated 5 days after spraying, formulation per Formulation Example 6"}
{"smiles": "COC(=O)Nc1ccccc1COc1ccc(-c2ccccn2)cc1", "note": "[methyl N-(2-{[4-(pyridine-2-yl)phenoxy)methyl}phenyl)carbamate]", "values": [{"measurement": "area of the lesion relative to untreated wheat", "value": "≥ 70", "unit": "%"}]}
